Experimental data: ChEMBL document CHEMBL5724558, “Image-based profiling of drug vulnerabilities in CRC organoids” (2024)
“And” between values parts separate entries of the source, which are not always exact repeats. Equal entries are not always repeated.

Columns and labels:
Assay type in all cases: functional, Homo sapiens
Design in all cases: dose or concentration left out as unconfirmed
Colon cancer organoid [1] = assay: Image-based profiling of donated chemical probes and chemogenomic kinase set in O09 CRC organoid. Image analysis is performed on the sum area metric, and the data were normalized to the DMSO control. After imaging the organoid viability is measured using the OneGloEX Luciferase Assay System. The normalized viability data and sum area are reported.
Colon cancer organoid [2] = assay: Image-based profiling of donated chemical probes and chemogenomic kinase set in O06 CRC organoid. Image analysis is performed on the sum area metric, and the data were normalized to the DMSO control. After imaging the organoid viability is measured using the OneGloEX Luciferase Assay System. The normalized viability data and sum area are reported.
Colon cancer organoid [3] = assay: Image-based profiling of donated chemical probes and chemogenomic kinase set in O21 CRC organoid. Image analysis is performed on the sum area metric, and the data were normalized to the DMSO control. After imaging the organoid viability is measured using the OneGloEX Luciferase Assay System. The normalized viability data and sum area are reported.

SMILES | Cell Viability (Colon cancer organoid [1]; Replication number 1) | Cell Viability (Colon cancer organoid [1]; Replication number 2) | Cell Viability (Colon cancer organoid [2]; Replication number 1) | Cell Viability (Colon cancer organoid [2]; Replication number 2) | Cell Viability (Colon cancer organoid [3]; Replication number 1) | Cell Viability (Colon cancer organoid [3]; Replication number 2)
Cc1ccccc1Oc1cc(-n2c(=O)cc(C(F)(F)F)[nH]c2=O)c2ccccc2c1Cl [BAY-069] | 112.474% and 107.103% | 148.882% and 102.498% | 107.213% and 122.915% | 117.719% and 113.888% | 99.7794% and 121.135% | 101.27% and 93.8137%
CN(C)[C@H]1CN(C2CCc3cccc(F)c32)C[C@@H]1c1ccc(N2CCN(S(C)(=O)=O)CC2)cc1 (stereo partly specified) | 201.275% and 108.733% | 175.885% and 109.186% | 159.825% and 136.993% | 128.982% and 128.571% | 78.9326% and 94.0562% | 85.3871% and 90.7518%
CC1CCN(c2ccnc(NCc3cn(C)cn3)n2)CC1 [TP-040] | 164.974% and 118.043% | 162.348% and 114.826% | 114.457% and 102.441% | 78.7525% and 90.5361% | 98.573% and 105.41% | 113.293% and 110.51%
CN1CCN(C(=O)C(C)(C)c2ccc(C(=O)Nc3cn4cc(-c5cc(C(C)(C)C)cc(C(C)(C)C)c5)ccc4n3)cc2)CC1 [T3-CLK-N] | 89.0201% and 93.1776% | 119.23% and 117.123% | 75.6351% and 77.2834% | 96.9336% and 98.0752% | 88.9475% and 97.2186% | 93.8303% and 107.653%
CN1CCN(Cc2cc(NC(=O)c3ccc4c(c3)CN(c3ccccc3)CC4)cc(C(F)(F)F)c2)CC1 | 73.1959% and 82.4072% | 164.971% and 111.856% | 104.972% and 109.917% | 87.5694% and 92.1973% | 111.963% and 96.9088% | 113.098% and 109.943%
O=C(NCc1ncc(C(F)(F)F)cc1Cl)c1ccc2c(c1)C1(CCS(=O)(=O)CC1)[C@@H](C1CC1)N2S(=O)(=O)c1ccc(F)cc1 [BAY-786] | 144.169% and 104.407% | 144.169% and 145.747% | 93.4369% and 85.4801% | 92.4233% and 87.6518% | 89.1117% and 93.1436% | 89.1705% and 87.7551%
CCc1cc(Nc2nccc(-c3c(-c4ccc(OC)c(C(=O)Nc5c(F)cccc5F)c4)nc4ccccn34)n2)c(OC)cc1N1CCC(N2CCN(S(C)(=O)=O)CC2)CC1 | 134.446% and 100.483% | 134.446% and 126.607% | 105.005% and 109.946% | 148.394% and 109.614% | 80.3348% and 98.676% | 124.058% and 123.21%
CN([C@@H]1CCc2c(CC(=O)O)c3cc(S(C)(=O)=O)ccc3n2C1)S(=O)(=O)c1ccc(F)cc1 [CRTH2-negative-control] | 103.344% and 126.626% | 95.2483% and 103.103% | 102.982% and 101.171% | 44.9133% and 103.761% | 114.066% and 111.772% | 101.538% and 90.3061%
OCCn1cc(-c2cnc3nnn(Cc4ccc5ncccc5c4)c3n2)cn1 [PF-04217903] | 126.877% and 95.995% | 92.9183% and 79.3656% | 92.042% and 100.376% | 104.418% and 102.005% | 106.76% and 119.861% | 108.21% and 119.755%
O=C(NNS(=O)(=O)c1ccccc1)c1cc(-c2ccnnc2)ccc1F [WM-2474] | 112.004% and 108.416% | 87.165% and 94.3695% | 103.665% and 117.571% | 96.3756% and 98.5103% | 113.818% and 97.6719% | 86.2106% and 79.5377%
Cn1cnc2c(F)c(Nc3ccc(Br)cc3Cl)c(C(=O)NOCCO)cc21 [SELUMETINIB] | 59.0124% and 83.6445% | 134.387% and 96.018% | 17.7792% and 31.8399% | 27.9489% and 57.8656% | 30.9074% and 27.5425% | 36.6071% and 40.747%
